Legend:
[1] = target: T1, Carbonic anhydrase 15 (Mus musculus, UniProt Q99N23)
T1 sequence (Q99N23 whole entry): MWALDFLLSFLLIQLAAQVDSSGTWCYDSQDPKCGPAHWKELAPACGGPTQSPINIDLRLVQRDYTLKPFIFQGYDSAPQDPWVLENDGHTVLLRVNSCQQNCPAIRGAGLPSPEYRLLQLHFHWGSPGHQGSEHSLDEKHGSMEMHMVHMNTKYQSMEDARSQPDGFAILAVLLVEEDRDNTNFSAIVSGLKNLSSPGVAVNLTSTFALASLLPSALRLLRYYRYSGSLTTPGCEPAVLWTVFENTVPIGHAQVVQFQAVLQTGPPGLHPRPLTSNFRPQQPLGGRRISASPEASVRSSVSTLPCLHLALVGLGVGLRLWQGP

[2] = target: Carbonic anhydrase 13 (Homo sapiens, UniProt Q8N1Q1)
[3] = target: Carbonic anhydrase 3 (Homo sapiens, UniProt P07451)
[4] = target: Carbonic anhydrase 4 (Homo sapiens, UniProt P22748)
[5] = target: Carbonic anhydrase 1 (Homo sapiens, UniProt P00915)
[6] = target: Carbonic anhydrase 5B, mitochondrial (Homo sapiens, UniProt Q9Y2D0)
[7] = target: Carbonic anhydrase 5A, mitochondrial (Homo sapiens, UniProt P35218)
[8] = target: Carbonic anhydrase 12 (Homo sapiens, UniProt O43570); assay: Inhibition of human recombinant CA12 by stopped flow CO2 hydrase assay
[9] = target: Carbonic anhydrase 6 (Homo sapiens, UniProt P23280)
[10] = target: Carbonic anhydrase 7 (Homo sapiens, UniProt P43166); assay: Inhibition of human recombinant CA7 by stopped flow CO2 hydrase assay
[11] = target: Carbonic anhydrase 9 (Homo sapiens, UniProt Q16790)
[12] = target: Carbonic anhydrase 14 (Homo sapiens, UniProt Q9ULX7)
Carbonic anhydrase 14, sequence (Q9ULX7 whole entry): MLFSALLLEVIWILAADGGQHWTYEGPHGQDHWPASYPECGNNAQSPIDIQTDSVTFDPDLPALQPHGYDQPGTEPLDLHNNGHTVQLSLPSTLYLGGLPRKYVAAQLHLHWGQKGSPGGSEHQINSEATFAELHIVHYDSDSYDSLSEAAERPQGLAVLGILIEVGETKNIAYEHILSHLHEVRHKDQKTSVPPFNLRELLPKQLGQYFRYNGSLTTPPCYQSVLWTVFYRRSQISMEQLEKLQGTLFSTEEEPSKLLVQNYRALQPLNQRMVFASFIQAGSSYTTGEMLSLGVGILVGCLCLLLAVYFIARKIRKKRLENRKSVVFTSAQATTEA

Carbonic anhydrase 3, sequence (P07451 whole entry): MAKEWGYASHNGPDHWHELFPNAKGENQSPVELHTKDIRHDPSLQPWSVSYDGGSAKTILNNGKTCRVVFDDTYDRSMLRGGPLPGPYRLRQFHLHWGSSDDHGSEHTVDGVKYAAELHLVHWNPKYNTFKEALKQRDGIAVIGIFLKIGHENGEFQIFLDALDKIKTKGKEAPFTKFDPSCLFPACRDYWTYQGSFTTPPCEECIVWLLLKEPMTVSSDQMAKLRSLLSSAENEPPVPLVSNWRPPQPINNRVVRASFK
Carbonic anhydrase 13, sequence (Q8N1Q1 whole entry): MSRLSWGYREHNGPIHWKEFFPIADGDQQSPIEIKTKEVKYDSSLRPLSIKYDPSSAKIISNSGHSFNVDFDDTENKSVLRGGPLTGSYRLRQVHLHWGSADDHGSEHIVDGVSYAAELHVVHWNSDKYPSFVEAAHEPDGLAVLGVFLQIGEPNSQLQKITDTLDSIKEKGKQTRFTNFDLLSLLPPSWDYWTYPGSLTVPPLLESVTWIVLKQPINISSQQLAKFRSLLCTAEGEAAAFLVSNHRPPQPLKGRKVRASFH
Carbonic anhydrase 5A, mitochondrial, sequence (P35218 whole entry): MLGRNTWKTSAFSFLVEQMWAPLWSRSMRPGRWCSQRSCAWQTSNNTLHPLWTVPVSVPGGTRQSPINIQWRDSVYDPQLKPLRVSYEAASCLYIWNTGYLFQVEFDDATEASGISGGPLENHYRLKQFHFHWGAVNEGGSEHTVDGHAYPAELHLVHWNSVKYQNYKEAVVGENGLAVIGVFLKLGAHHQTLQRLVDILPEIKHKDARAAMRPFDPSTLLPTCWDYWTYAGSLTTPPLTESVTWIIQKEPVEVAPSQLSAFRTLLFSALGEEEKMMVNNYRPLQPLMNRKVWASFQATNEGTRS
Carbonic anhydrase 12, sequence (O43570 whole entry): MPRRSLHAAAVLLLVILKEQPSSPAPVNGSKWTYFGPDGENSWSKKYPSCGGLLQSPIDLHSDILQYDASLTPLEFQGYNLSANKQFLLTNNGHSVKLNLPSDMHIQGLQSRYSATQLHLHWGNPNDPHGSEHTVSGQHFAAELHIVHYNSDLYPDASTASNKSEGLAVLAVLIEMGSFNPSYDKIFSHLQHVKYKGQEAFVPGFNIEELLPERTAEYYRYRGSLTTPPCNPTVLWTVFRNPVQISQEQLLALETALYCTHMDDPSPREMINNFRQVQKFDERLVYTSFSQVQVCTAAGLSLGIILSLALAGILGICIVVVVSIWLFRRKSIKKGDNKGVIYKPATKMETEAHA
Carbonic anhydrase 5B, mitochondrial, sequence (Q9Y2D0 whole entry): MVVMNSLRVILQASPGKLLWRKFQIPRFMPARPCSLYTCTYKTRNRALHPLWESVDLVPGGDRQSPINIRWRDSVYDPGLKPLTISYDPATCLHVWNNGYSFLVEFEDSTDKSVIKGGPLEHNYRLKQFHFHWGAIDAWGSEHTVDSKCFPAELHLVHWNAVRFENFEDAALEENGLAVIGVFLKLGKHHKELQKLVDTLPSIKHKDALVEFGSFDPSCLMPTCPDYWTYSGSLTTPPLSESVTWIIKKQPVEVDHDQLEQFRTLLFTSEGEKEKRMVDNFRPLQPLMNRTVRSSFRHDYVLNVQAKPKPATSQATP
Carbonic anhydrase 4, sequence (P22748 whole entry): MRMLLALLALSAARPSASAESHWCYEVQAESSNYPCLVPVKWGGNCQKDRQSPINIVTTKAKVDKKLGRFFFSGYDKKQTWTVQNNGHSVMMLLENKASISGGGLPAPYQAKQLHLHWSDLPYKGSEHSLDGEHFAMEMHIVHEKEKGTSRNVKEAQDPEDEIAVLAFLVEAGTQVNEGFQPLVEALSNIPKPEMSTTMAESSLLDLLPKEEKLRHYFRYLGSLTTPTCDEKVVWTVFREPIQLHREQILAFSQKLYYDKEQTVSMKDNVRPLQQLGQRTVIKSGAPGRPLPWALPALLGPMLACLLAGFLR
Carbonic anhydrase 7, sequence (P43166 whole entry): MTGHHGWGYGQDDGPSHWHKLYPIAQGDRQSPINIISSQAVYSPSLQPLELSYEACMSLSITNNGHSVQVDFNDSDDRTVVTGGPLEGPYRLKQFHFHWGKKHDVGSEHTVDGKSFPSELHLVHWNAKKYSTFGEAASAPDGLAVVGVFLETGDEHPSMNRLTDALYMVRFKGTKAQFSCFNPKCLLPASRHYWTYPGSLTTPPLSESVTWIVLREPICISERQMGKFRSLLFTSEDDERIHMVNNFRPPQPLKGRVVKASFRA
Carbonic anhydrase 1, sequence (P00915 whole entry): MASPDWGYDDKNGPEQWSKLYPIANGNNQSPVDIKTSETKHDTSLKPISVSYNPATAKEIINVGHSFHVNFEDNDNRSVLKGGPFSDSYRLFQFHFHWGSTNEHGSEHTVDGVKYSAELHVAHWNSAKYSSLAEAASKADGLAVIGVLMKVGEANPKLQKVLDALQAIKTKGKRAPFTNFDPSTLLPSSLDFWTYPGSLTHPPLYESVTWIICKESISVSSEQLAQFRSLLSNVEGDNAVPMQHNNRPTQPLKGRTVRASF
Carbonic anhydrase 6, sequence (P23280 whole entry): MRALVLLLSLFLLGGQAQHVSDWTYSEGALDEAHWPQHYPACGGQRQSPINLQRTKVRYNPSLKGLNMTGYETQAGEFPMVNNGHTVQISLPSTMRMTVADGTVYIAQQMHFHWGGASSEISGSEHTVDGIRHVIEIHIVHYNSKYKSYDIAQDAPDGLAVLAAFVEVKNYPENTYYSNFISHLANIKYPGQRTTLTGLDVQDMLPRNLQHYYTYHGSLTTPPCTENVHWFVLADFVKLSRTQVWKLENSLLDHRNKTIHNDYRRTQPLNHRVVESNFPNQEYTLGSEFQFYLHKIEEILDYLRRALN

SMILES	Ki [1] [nM]	Ki [2] [nM]	Ki [3] [nM]	Ki [4] [nM]	Ki [5] [nM]	Ki [6] [nM]	Ki [7] [nM]	Ki [8] [nM]	Ki [9] [nM]	Ki [10] [nM]	Ki [11] [nM]	Ki [12] [nM]
COc1cc2oc(=O)ccc2cc1[C@@H](O)CC(C)C	93100	–	–	–	–	–	–	–	–	–	–	–
Nc1ccc(S(N)(=O)=O)cc1 [SULFANILAMIDE]	–	32	988	–	–	–	–	–	–	–	–	–
COC[C@@H](NC(C)=O)C(=O)NCc1ccccc1 [LACOSAMIDE]	461	1210	374	525	362	341	4570	3710	412	4450	353	473
